Assays:
[1] = Solubility in water evaluated by filtration of the solution on a syringe filter; assay type: physicochemical
[2] = Stability of the compounds of formula (IA) and (IB) and of their solid composition by HPLC; assay type: physicochemical; conditions: for Stability by HPLC as such and after freeze-drying: (IA) with or without iodide
Method: The formulations from 13 to 18 and the compounds used for the preparation thereof were analysed with the following analytical method. The analysis confirms that the purity of IA >99.5% injected as such and the stability of the formulation after freeze-drying, evaluated based on the fact that there is no other peak in the chromatogram except for Ia and Ib.
Sample solution: 1.5 mg/ml in methanol. Inject immediately after preparing the solution. The mixtures of formula (IA) and (IB) described in Table 2 were prepared and then appropriately diluted and injected in HPLC to evaluate the profile at T0.
The same mixtures were re-prepared exactly as described in the experimental part, dry frozen and controlled in HPLC after freeze-drying, 7 days later. During these 7 days the samples were stored inside their amber glass vials in a protective atmosphere at room temperature. The freeze-dried products were dissolved in water at the same dilution as the not freeze-dried samples.
The stability of the freeze-dried powders stored in the vials was evaluated using HPLC even after 6 months. The freeze-dried products are stable, even without the presence of sodium iodide, formulation 9.
The reconstituted solution was stable if stored at 4-10° C. for at least 24 hours (formulations 1, 3, 5 and 7).

[3] = aqueous solution; cited from earlier work
[4] = after intravenous administration; cited from earlier work
[5] = freeze-dried, 10 mg/ml in water
[6] = not freeze-dried, 5 mg/ml in water
[7] = not freeze-dried, 10 mg/ml in water

| SMILES | Filtration on 0.45 μm syringe filter: Pressure ([1]; freeze-dried, 5 mg/ml in water) | Filtration on 0.45 μm syringe filter: ml filtered ([1]; freeze-dried, 5 mg/ml in water) | Filtration on 0.45 μm syringe filter: Pressure [1, 5] | Filtration on 0.45 μm syringe filter: ml filtered [1, 5] | Filtration on 0.45 μm syringe filter: Pressure [1, 6] | Filtration on 0.45 μm syringe filter: ml filtered [1, 6] | Filtration on 0.45 μm syringe filter: Pressure [1, 7] | Filtration on 0.45 μm syringe filter: ml filtered [1, 7] | Stability by HPLC as such and after freeze-drying [2] | Degradation by freeze-drying (HPLC) ([2]; as such or in mixture with (IB), with or without sodium iodide) | Decomposition when dissolved in water [3] | Time to complete removal by the kidneys [4] |
| --- | --- | --- | --- | --- | --- | --- | --- | --- | --- | --- | --- | --- |
| CC1(C)C(/C=C/C=C/C=C/C=C2\N(CCCCS(=O)(=O)[O-])c3ccc4ccccc4c3C2(C)C)=[N+](CCCCS(=O)(=O)[O-])c2ccc3ccccc3c21.[Na+] [069/079] | Low | 10 mL | Low | 10 mL | Block | 0 mL | Block | 0 mL |  |  |  |  |
| CC1(C)C(/C=C/C=C/C=C/C=C2\N(CCCCS(=O)(=O)[O-])c3ccc4ccccc4c3C2(C)C)=[N+](CCCCS(=O)(=O)[O-])c2ccc3ccccc3c21.[Na+] [compound of formula (IA), 1H-benz[e]indole, 2-[7-[1,3-dihydro-1,1-dimethyl-3-(4-sulfobutyl)-2H-benz[e]indol-2-ylidene]-1,3,5-heptatrienyl]-1,1-dimethyl-3-(4-sulfobutyl) hydroxide, inner salt, sodium salt] |  |  |  |  |  |  |  |  | stable | does not degrade | non-detectable decomposition for a few hours |  |
| O=C([O-])c1ccccc1-c1c2ccc(=O)cc-2oc2cc([O-])ccc12.[Na+].[Na+] [compound of formula (IB), sodium fluorescein] |  |  |  |  |  |  |  |  | stable |  |  | 24 to 36 h |
